# ChEMBL document CHEMBL1201862, “PubChem BioAssay data set” (2004)
# Calls of active or inactive are those of the source.
# Columns and labels:
# [1] = biological target: Beta-2 adrenergic receptor (Homo sapiens, UniProt P07550); assay: ADRB2 activation measured by internalization – cell-based, FAP fluorogen, flow cytometry, cherry pick 1, dose response (AID 588763); format: functional
# [2] = luciferase reporter signal suppression in cells – H4 neuroglioma cells, luminescence, dose response (AID 1990); format: functional, cell-based
# [3] = biological target: T1, Microphthalmia-associated transcription factor (Homo sapiens, UniProt O75030); assay: reducers of TRPM1 reporter luminescence, concentration series – cell-based, SK-MEL-5, cherry-picked, set 3, MITF inhibitor project, dose response (AID 493073); format: functional;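 note: SK-MEL-5 melanoma cells with luciferase driven by the MITF target TRPM1 promoter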
# T1 sequence (O75030 whole entry): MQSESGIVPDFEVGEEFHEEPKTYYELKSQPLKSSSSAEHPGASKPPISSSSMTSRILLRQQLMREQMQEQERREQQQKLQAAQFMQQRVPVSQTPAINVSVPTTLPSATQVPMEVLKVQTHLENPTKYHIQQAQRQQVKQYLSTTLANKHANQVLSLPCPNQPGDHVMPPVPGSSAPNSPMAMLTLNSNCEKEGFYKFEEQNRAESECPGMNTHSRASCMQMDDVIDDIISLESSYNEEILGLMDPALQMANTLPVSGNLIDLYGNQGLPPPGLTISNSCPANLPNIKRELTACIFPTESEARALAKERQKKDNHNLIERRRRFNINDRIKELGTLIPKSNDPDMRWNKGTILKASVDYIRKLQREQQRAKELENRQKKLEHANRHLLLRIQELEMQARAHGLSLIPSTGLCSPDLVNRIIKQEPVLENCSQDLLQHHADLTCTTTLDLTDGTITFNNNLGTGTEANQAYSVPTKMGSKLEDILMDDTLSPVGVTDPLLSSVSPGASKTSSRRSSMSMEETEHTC
# [4] = alpha-synuclein stem-loop luciferase translation blockers – H4 neuroglioma cells, luminescence, confirmation (AID 1988); format: functional, cell-based
# [5] = Luminescence Cell-Based Dose Response HTS to Identify Inhibitors of 5'UTR Stem-Loop Driven Prion Protein mRNA Translation in H4 Neuroglioblastoma Cells. [Related pubchem assays: 1827 (Project Summary), 1813 (Primary HTS)]; format: functional
# [6] = test system: INS1; assay: INS-1E survival protection against cytokine death – cell-based, luminescence, retest, dose response (AID 449756); format: functional; conditions: Rattus norvegicus;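 note: cell death triggered by IL-1 beta plus TNF-alpha plus IFN-gamma mixture; protective hits raise ATP signal compared with cytokine alone wells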
# [7] = biological target: Apoptotic protease-activating factor 1 (Homo sapiens, UniProt O14727); format: functional
# [8] = biological target: Beta-galactosidase (Escherichia coli, UniProt Q8VNN2); assay: PubChem AID 485352; format: functional
# [9] = biological target: T2, Short transient receptor potential channel 4 (Mus musculus, UniProt Q9QUQ5); assay: calcium entry via TRPC4 opening agents – cell-based, HEK293 TRPC4/mu-opioid, Fluo-4 calcium, dose response (AID 434937); format: functional
# T2 sequence (Q9QUQ5 whole entry): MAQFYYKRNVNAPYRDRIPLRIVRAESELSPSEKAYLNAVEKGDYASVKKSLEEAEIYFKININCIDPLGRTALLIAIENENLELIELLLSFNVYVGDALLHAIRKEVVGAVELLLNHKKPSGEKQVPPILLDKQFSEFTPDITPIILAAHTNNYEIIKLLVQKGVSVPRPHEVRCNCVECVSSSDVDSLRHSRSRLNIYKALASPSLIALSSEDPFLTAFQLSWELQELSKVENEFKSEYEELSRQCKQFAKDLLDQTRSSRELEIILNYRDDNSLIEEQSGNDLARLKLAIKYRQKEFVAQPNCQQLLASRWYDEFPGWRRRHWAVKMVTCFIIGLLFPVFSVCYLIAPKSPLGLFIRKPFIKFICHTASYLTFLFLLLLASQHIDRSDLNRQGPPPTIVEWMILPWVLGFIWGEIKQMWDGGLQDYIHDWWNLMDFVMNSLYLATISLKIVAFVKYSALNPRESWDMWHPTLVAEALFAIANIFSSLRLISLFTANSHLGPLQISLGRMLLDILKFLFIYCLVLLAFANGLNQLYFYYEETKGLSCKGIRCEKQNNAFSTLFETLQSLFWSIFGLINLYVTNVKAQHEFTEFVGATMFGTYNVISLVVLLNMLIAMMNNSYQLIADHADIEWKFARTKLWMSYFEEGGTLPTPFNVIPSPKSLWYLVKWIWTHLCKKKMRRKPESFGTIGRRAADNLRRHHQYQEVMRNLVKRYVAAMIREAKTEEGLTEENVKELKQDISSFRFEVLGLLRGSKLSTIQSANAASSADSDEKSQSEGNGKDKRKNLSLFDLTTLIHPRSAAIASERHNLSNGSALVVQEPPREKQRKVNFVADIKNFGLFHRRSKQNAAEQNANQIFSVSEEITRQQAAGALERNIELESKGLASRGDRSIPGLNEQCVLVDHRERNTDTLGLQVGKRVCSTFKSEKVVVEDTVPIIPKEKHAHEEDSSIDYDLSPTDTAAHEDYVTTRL
# [10] = Trypanosoma cruzi growth suppression in host cells – NIH3T3 host cells, beta-gal luminescence, confirmation (AID 2044); format: functional, cell-based;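 note: intracellular parasites grown in NIH/3T3 mouse fibroblasts as host cells; luminescent beta-galactosidase reporter signal from transgenic T. cruzi replicating inside host cells; inhibitors lower the luminescence signal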
# [11] = biological target: Type-1 angiotensin II receptor (Homo sapiens, UniProt P30556); assay: antagonism of angiotensin II type 1 receptor – cell-based, uHTS hits, selectivity assay for APJ receptor antagonist project, dose response (AID 463214); format: functional;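 note: antagonist potency against angiotensin II stimulated AT1 response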
# [12] = NIH3T3 cell viability loss – ATP luminescence, mouse fibroblasts, counter-screen, dose response (AID 2010); format: functional, cell-based;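 note: cells exposed to compound for about 90 hours before reading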
# [13] = biological target: T3, Leucine aminopeptidase (Plasmodium falciparum 3D7, UniProt Q8IL11); assay: P. falciparum M17LAP inhibitors, primary screen, biochemical, fluorogenic H-Leu-NHMec substrate, 1536-well (AID 1619); format: functional
# T3 sequence (Q8IL11 whole entry): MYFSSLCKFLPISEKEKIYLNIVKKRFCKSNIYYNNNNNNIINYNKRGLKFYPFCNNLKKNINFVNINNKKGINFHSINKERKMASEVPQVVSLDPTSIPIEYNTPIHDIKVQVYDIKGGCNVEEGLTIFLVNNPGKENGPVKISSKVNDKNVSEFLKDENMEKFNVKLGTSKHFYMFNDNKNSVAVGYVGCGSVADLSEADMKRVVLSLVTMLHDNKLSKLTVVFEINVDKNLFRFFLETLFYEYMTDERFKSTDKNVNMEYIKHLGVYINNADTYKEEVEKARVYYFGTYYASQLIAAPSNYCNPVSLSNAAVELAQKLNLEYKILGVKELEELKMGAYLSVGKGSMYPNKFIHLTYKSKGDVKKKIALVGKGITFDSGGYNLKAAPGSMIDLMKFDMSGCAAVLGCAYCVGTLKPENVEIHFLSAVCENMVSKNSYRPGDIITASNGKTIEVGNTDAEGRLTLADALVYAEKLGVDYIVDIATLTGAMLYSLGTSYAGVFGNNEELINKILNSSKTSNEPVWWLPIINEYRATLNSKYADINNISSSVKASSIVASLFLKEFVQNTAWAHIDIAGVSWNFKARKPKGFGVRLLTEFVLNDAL
# [14] = biological target: T4, Hexokinase HKDC1 (Homo sapiens, UniProt Q2TB90); assay: SAR analysis of small molecule inhibitors of hexokinase domain containing I (HKDC1). [Related pubchem assays (depositor defined):AID493160, AID493190]; format: functional
# T4 sequence (Q2TB90 whole entry): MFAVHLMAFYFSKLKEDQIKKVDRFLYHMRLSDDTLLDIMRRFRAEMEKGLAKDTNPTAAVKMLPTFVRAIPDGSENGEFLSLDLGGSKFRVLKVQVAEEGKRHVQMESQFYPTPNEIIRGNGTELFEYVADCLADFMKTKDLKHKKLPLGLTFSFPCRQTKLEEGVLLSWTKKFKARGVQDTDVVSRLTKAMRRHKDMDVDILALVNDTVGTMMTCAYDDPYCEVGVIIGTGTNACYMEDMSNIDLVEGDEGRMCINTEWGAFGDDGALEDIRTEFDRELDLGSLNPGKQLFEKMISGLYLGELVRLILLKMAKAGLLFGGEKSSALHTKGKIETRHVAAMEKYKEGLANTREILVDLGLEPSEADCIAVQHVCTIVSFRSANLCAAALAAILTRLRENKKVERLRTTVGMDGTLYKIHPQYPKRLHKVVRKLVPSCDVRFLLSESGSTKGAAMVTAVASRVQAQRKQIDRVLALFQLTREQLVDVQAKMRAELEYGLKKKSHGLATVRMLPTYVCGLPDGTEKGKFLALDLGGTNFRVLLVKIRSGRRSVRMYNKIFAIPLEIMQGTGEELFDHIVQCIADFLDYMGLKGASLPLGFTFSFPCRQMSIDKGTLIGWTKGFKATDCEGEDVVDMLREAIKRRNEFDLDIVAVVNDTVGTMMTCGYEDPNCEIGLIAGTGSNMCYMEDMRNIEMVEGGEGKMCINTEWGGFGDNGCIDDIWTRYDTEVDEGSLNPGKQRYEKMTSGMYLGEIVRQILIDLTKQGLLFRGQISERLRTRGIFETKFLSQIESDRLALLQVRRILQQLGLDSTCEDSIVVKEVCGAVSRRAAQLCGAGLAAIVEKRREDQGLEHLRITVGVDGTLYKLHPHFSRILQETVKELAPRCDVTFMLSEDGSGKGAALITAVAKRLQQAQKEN
# [15] = biological target: Hexokinase-1 (Homo sapiens, UniProt P19367); assay: SAR analysis of small molecule inhibitors of hexokinase domain containing I (HKDC1) in the hexokinase 1 selectivity assay. [Related pubchem assays (depositor defined):AID493160, AID493190]; format: functional
# [16] = suppression of NO production in INS-1E cells – cell-based, Griess absorbance, dry powder, set 3, dose response (AID 488870); format: functional; conditions: Rattus norvegicus
# [17] = test system: INS1; assay: INS-1E mitochondrial potential loss inhibitors – cell-based, JC-1 fluorescence, dry powder, set 2, dose response (AID 488867); format: functional; conditions: Rattus norvegicus
# [18] = biological target: Paired box protein Pax-8 (Homo sapiens, UniProt Q06710); assay: PAX8 transcriptional activity inhibition in RMG-I – RMG-I cells, luciferase, cherry-pick, dose response (AID 687027); format: functional, cell-based;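 note: luciferase reporter driven by Pax8 target thyroperoxidase promoter measured by SteadyGlo luminescence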
# [19] = test system: INS1; assay: suppression of NO production in INS-1E cells – cell-based, Griess absorbance, dry powder, set 2, dose response (AID 488868); format: functional; conditions: Rattus norvegicus
# [20] = test system: Candida albicans; assay: antifungal activity against resistant Candida strain – CaCi-8, fluconazole, Alamar Blue, dry powder, dose response (AID 488807); format: functional, organism-based
# [21] = test system: NIH3T3; assay: mammalian cell viability counter-check – Alamar Blue, fluconazole, dry powder, cytotoxicity control for antifungal drug resistance project, dose response (AID 488809); format: functional, cell-based; conditions: Mus musculus
# [22] = test system: Candida albicans; assay: C. albicans growth inhibition with fluconazole – CaCi-2 strain, Alamar Blue, dry powder, set 4, dose response (AID 488943); format: functional, organism-based
# [23] = test system: Candida albicans; assay: fluconazole-resistant Candida strain growth inhibitors – CaCi-8 strain, dry powder, set 4, dose response (AID 488950); format: functional, organism-based
# [24] = test system: Candida albicans; assay: single-agent toxicity toward C. albicans – CaCi-2 strain, no fluconazole, dry powder, set 4, counter-screen for reversing antifungal drug resistance, dose response (AID 488932); format: functional, organism-based
# Chain of Hexokinase-1 (P19367 whole entry, the tested form may be a part): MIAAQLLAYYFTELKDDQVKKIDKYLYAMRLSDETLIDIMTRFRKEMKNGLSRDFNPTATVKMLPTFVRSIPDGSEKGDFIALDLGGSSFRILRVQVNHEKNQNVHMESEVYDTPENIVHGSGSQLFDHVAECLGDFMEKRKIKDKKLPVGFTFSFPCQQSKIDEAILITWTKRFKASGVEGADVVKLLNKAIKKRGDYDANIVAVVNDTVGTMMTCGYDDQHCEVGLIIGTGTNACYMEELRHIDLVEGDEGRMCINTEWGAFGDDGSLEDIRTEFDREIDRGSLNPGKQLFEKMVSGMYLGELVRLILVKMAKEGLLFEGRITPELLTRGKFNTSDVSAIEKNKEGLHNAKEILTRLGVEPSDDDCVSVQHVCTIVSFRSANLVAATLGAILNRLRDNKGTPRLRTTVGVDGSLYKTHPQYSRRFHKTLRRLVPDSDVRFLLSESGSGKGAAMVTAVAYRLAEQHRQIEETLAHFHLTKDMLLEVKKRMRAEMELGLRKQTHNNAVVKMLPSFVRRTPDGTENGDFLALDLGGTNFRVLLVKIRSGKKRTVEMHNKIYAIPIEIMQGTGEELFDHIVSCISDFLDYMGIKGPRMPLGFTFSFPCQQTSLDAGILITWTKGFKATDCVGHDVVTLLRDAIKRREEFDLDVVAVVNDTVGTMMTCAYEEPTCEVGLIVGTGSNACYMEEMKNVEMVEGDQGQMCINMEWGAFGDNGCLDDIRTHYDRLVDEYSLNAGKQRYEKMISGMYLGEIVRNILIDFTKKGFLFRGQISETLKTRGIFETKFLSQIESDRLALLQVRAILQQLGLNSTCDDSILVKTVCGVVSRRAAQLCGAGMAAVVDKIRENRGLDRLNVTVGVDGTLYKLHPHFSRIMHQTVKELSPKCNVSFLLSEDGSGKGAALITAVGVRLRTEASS
# Chain of Apoptotic protease-activating factor 1 (O14727 whole entry): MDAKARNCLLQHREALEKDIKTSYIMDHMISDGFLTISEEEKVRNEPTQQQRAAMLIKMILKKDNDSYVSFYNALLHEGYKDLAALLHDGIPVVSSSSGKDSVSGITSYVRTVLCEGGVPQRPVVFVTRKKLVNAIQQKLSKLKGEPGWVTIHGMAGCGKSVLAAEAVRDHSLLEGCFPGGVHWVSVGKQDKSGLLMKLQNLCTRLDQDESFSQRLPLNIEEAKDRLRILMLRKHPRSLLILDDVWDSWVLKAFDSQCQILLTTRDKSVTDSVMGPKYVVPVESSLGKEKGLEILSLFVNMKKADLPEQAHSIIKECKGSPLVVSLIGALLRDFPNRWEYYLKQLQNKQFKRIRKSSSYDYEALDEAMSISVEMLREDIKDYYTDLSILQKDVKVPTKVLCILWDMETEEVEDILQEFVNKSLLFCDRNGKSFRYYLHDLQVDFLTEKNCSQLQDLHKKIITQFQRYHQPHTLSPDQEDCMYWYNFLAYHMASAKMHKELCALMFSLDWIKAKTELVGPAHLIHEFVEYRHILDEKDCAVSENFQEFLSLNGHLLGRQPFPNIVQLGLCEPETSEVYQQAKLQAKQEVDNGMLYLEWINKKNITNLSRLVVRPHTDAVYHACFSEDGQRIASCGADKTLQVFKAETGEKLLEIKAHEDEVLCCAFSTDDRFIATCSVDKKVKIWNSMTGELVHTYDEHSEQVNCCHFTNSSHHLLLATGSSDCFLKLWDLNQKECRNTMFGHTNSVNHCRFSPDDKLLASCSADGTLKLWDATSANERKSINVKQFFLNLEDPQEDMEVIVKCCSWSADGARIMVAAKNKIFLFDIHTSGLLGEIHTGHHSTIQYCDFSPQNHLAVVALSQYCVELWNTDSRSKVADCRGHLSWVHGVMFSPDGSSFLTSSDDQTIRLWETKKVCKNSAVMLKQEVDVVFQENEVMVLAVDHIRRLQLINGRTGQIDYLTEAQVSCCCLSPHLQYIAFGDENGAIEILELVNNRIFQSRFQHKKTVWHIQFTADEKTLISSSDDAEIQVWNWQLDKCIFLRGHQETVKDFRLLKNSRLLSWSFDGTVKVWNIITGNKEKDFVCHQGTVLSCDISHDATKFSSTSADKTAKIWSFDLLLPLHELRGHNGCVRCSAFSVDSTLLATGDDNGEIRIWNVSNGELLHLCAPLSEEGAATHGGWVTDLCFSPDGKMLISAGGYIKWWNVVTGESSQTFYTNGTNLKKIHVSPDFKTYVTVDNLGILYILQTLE
# Chain of Beta-galactosidase (Q8VNN2 whole entry): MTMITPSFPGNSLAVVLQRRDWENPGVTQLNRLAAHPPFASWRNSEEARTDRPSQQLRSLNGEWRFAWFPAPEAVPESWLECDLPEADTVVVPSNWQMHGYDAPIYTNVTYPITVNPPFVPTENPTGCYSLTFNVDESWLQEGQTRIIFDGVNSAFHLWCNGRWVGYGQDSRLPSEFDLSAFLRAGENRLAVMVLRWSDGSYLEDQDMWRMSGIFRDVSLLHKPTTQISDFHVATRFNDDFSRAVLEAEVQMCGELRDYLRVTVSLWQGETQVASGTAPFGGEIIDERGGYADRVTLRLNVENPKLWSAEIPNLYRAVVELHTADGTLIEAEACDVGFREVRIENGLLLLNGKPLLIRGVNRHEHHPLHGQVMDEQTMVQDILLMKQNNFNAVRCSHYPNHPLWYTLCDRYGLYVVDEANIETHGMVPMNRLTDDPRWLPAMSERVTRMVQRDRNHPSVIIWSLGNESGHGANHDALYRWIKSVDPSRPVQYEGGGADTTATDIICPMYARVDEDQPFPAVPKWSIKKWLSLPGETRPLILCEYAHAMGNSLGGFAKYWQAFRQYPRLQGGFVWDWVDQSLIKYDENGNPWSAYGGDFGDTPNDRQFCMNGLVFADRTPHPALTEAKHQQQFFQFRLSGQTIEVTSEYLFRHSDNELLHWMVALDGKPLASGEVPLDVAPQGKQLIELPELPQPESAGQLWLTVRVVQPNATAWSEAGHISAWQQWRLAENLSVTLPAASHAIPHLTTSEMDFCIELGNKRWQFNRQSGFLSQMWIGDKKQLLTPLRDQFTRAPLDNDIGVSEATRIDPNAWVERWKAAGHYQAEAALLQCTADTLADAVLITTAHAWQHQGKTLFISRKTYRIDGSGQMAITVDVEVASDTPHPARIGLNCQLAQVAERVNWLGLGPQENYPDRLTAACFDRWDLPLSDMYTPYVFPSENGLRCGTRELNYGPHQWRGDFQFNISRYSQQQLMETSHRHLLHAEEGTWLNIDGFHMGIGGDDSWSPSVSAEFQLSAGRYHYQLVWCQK
# Chain of Type-1 angiotensin II receptor (P30556 whole entry): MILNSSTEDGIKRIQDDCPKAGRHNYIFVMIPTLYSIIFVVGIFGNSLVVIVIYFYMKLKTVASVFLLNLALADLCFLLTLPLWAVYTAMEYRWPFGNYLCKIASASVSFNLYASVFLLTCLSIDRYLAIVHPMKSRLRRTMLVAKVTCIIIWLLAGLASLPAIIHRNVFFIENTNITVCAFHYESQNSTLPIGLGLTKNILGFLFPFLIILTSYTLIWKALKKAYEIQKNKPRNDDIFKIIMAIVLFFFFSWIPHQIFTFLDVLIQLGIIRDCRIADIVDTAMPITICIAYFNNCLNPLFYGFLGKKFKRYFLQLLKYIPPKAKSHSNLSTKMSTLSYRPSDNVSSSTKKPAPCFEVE
# Chain of Beta-2 adrenergic receptor (P07550 whole entry): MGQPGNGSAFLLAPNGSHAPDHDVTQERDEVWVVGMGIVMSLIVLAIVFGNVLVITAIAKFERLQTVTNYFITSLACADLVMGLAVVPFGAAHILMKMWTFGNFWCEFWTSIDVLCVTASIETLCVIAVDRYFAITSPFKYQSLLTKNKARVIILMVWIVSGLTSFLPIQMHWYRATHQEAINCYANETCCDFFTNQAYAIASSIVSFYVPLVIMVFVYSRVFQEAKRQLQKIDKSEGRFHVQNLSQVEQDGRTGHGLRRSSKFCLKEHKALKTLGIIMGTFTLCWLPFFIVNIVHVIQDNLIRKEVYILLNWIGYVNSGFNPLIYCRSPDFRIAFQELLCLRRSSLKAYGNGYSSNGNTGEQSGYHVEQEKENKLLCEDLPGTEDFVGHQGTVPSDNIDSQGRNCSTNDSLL
# Chain of Paired box protein Pax-8 (Q06710 whole entry): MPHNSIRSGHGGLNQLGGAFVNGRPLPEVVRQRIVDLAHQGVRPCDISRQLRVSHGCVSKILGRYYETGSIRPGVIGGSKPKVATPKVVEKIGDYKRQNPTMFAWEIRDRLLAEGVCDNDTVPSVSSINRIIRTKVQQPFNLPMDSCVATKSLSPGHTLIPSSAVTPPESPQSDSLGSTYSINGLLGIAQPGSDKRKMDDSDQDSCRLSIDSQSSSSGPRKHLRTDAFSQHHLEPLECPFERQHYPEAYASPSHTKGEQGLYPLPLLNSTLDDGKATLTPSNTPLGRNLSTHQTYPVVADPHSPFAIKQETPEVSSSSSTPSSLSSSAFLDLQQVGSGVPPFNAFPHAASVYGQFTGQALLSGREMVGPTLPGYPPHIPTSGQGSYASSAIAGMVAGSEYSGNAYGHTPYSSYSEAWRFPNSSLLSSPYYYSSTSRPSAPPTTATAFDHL
smiles,measurement,setting,value
Nc1cccc(C#Cc2ccc3c(=O)c4ccccc4oc3c2)c1,EC50,[1],0.245 µM (active)
CC(=O)Nc1ccc(S(=O)(=O)NC2=C(N3CCN(C)CC3)C(=O)c3ccccc3C2=O)cc1,EC50,[2],15.6 µM (active)
same,AC50,[3],3.65 µM (active)
same,EC50,[4],11.1 µM (active)
same,EC50,[5],> 120 µM (not active)
same,AC50,[6],3.99 µM (active)
same,IC50,[7],29.7 µM (active)
CC(C)(C)c1cc(CCC(=O)NNC(=S)NC(=O)c2ccccc2)cc(C(C)(C)C)c1O,EC50,[8],> 40 µM (inactive)
same,EC50,[9],3.35 µM (active)
same,EC50,[10],0.382 µM (active)
same,IC50,[11],35.5 µM (not active)
same,EC50,[12],15.7 µM (active)
same,AC50,[6],3.99 µM (active)
same,IC50,[13],32.2 µM (active)
COc1ccc(/C=C/c2nc3ccccc3c(=O)n2Cc2ccccc2)cc1OC,IC50,[14],> 80 µM (inactive)
same,IC50,[15],> 80 µM (inactive)
Cc1ccc(S(=O)(=O)N(C)C[C@H]2Oc3c(NC(=O)Nc4cccc5ccccc45)cccc3C(=O)N([C@@H](C)CO)C[C@@H]2C)cc1,AC50,[16],> 195 µM (inactive)
same,AC50,[17],38.8 µM (active)
same,AC50,[18],5.94 µM (active)
same,AC50,[19],45.6 µM (active)
O=C(c1csc2ccccc12)N1CCN(c2ccnc3cc(Cl)ccc23)CC1,AC50,[20],2.72 µM (active)
same,AC50,[21],4.47 µM (active)
same,AC50,[22],0.946 µM (active)
same,AC50,[23],1.69 µM (active)
same,AC50,[24],106 µM (active)
